Test results from patent publication US20240360113A1, “AMINOARYL-INTEGRIN AGONISTS COMPOUNDS” (Texas Heart Institute, priority 2021, published 2024).

Tests used:
α4β1/VCAM-1 = target: T1, α4β1/VCAM-1 (Homo sapiens, UniProt P05556+P13612); assay: Static cell adhesion assay, Jurkat cells on VCAM-1 (VLA-4 agonist activity); format: cell-based; conditions: EC50 relative to THI0349 (average 11 uM) run on the same plate; Jurkat cells, 50% FBS
T1 construct: The Jurkat (VCAM-1 assays) and HSB (ICAM-1 assays) cell lines were obtained from American Type Culture Collection; endogenous in cells; host or cells: Jurkat (ATCC)
Procedure, shortened: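 Calcein-labelled Jurkat cells (2×10^5/well) were added to wells coated with a sub-optimal level of human VCAM-1 (0.5 μg/mL) in PBS, 1 mM MgCl2, 50% FBS with compound in 1% DMSO. After 30 min at 37° C. and washing, adherent-cell fluorescence was read. EC50 was the concentration giving 50% of maximal response.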

αLβ2/ICAM-1 = target: T2, αLβ2/ICAM-1 (Homo sapiens, UniProt P05107+P20701); assay: Static cell adhesion assay, HSB cells on ICAM-1 (LFA-1; LAD); format: cell-based; conditions: RFU of compound / RFU of THI0349, both at the same concentration
T2 construct: The Jurkat (VCAM-1 assays) and HSB (ICAM-1 assays) cell lines were obtained from American Type Culture Collection; endogenous in cells; host or cells: HSB (ATCC)
Procedure, shortened: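 HSB cells were labeled with calcein-AM for 30 minutes, washed, resuspended in binding buffer (PBS with 2 mM MgCl2, 5 mM EGTA, 50% FBS) and plated at 2×10^5 cells/well in triplicate onto 96-well plates coated overnight at 4° C with ICAM-1 (5 μg/mL in 50 μL TBS) and blocked with 2% BSA. Compounds were tested in 1% DMSO. After 30 minutes at 37° C and three washes, adherent cells were lysed and fluorescence was read; results are compound RFU divided by THI0349 RFU.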

T2 sequence (P20701 26-1170): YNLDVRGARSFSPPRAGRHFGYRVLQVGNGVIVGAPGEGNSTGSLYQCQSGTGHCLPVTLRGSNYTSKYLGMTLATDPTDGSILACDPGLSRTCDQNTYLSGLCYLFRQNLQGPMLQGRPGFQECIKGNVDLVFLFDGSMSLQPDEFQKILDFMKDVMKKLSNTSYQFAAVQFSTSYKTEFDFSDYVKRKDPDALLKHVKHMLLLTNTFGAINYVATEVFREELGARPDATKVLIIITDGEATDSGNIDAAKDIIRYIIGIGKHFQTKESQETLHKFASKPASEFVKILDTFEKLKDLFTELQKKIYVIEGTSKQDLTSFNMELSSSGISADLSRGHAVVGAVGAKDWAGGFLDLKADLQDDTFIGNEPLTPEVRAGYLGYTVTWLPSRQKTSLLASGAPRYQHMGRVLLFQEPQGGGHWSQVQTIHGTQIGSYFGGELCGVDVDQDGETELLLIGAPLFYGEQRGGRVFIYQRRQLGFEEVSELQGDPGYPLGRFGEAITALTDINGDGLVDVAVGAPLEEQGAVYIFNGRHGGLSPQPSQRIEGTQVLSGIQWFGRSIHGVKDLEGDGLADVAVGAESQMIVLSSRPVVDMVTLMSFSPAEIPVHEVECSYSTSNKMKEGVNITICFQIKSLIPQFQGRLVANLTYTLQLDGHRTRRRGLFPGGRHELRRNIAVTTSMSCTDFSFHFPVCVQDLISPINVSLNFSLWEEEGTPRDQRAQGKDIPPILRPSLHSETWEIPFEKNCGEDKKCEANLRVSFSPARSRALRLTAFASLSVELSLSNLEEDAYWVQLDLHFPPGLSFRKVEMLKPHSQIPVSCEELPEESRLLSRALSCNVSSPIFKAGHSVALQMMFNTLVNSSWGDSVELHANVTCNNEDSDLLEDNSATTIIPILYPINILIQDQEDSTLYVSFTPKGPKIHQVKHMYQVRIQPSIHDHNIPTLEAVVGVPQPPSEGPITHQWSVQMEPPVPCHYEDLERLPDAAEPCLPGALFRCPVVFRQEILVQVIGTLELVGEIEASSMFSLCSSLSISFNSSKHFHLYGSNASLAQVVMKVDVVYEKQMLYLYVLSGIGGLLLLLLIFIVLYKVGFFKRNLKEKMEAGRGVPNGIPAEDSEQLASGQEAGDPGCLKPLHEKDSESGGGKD
T2 sequence (P05107 23-769): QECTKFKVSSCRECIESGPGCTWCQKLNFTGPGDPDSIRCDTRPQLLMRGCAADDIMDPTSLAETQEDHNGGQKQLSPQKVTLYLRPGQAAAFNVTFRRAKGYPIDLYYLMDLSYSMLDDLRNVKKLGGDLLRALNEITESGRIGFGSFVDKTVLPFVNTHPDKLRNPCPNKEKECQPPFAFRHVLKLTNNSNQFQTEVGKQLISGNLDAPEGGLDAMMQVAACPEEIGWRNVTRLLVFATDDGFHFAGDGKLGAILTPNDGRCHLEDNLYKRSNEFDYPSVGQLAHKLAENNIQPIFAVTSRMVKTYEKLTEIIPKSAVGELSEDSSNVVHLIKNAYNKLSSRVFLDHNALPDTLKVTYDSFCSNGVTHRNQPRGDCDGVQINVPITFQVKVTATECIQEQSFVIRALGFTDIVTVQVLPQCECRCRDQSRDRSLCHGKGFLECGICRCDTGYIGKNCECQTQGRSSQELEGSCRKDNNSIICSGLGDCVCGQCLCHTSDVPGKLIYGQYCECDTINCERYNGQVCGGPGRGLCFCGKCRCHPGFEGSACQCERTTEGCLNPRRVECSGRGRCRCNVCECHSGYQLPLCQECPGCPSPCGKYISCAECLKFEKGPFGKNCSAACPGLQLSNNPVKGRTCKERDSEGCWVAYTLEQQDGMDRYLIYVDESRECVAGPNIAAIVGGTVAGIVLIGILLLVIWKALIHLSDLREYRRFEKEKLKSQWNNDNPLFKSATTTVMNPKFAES
T1 sequence (P13612 34-1032): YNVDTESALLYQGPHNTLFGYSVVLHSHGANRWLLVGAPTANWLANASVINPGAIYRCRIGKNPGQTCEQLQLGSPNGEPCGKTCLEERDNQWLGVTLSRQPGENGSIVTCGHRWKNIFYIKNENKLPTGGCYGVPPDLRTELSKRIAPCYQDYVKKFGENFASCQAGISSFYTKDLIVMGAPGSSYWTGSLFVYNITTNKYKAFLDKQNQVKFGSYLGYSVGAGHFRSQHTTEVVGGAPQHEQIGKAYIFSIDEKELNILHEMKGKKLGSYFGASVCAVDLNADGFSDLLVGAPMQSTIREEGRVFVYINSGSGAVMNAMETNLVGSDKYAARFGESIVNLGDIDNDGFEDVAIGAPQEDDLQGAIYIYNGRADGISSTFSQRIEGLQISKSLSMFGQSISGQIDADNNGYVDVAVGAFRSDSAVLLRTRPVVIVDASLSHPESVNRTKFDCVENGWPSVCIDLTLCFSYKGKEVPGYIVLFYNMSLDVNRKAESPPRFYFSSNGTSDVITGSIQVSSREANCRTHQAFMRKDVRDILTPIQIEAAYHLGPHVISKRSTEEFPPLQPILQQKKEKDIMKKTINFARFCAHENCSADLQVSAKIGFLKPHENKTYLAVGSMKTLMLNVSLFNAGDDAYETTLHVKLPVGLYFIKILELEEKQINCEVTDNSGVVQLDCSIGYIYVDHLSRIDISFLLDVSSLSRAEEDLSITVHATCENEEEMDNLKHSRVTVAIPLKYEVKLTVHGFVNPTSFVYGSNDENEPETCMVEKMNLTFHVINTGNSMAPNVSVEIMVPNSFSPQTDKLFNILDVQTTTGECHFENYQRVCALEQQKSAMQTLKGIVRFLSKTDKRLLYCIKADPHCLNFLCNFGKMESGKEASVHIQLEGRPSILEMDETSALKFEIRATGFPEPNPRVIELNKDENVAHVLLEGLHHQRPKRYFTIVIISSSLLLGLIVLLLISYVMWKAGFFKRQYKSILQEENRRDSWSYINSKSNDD
T1 sequence (P05556 21-798): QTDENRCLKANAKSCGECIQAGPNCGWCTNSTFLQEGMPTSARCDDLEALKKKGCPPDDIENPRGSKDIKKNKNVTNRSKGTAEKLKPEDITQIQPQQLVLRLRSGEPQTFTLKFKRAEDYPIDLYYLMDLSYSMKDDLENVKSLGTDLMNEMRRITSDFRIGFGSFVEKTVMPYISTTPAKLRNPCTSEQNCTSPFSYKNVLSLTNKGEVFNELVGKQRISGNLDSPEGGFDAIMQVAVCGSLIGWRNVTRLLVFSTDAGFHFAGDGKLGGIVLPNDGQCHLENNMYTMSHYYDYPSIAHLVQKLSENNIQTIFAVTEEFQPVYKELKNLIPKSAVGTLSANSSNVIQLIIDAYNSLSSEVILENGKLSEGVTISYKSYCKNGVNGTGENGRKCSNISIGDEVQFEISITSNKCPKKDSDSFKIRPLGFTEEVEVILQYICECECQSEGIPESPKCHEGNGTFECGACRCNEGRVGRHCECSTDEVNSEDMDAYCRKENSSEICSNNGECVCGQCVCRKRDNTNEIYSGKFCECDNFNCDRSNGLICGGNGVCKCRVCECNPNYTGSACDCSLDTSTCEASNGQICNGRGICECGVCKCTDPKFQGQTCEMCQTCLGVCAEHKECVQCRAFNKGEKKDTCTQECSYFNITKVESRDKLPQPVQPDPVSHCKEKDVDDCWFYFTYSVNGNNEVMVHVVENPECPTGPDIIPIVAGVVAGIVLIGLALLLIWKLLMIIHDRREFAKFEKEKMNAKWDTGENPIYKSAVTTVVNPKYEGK

Structure (SMILES) | LAD Raw Fluorescence Units against LFA-1; Dose 3 µM; Ratio of raw counts Compound/THI0349 (αLβ2/ICAM-1) | Group against VCAM (α4β1/VCAM-1)
COc1cccc(COc2cccc(N(Cc3cccc(OC)c3)Cc3cccc(OC)c3)c2)c1 [Compound 92, N,N-bis(3-methoxybenzyl)-3-((3-methoxybenzyl)oxy)aniline] | 0.6 | III (Group III more than five times the EC50 of THI0349)
CCc1nnc(N(Cc2cccc(OC)c2)Cc2cccc(OC)c2)s1 [Compound 94, 5-ethyl-N,N-bis(3-methoxybenzyl)-1,3,4-thiadiazol-2-amine] | 0.29 | III (Group III more than five times the EC50 of THI0349)
CCOC(=O)c1ccc(N(Cc2cccc(OC)c2)Cc2cccc(OC)c2)nc1 [Compound 95, ethyl 6-(bis(3-methoxybenzyl)amino)nicotinate] | 0.09 | III (Group III more than five times the EC50 of THI0349)
CCOC(=O)c1cnc(N(Cc2cccc(OC)c2)Cc2cccc(OC)c2)nc1 [Compound 96, ethyl 2-(bis(3-methoxybenzyl)amino)pyrimidine-5-carboxylate] | 0.08 | III (Group III more than five times the EC50 of THI0349)
COc1cccc(CN(Cc2ccc(-n3cccn3)cc2)c2nc(C)cs2)c1 [Compound 98, N-(4-(1H-pyrazol-1-yl)benzyl)-N-(3-methoxybenzyl)-4-methylthiazol-2-amine] | 0.03 | III (Group III more than five times the EC50 of THI0349)
COc1cccc(CN(C)c2nc(C)cs2)c1 [Compound 100, N-(3-methoxybenzyl)-N,4-dimethylthiazol-2-amine] | 0.05 | III (Group III more than five times the EC50 of THI0349)
COC(=O)c1nc(N(Cc2cccc(OC)c2)Cc2cccc(OC)c2)sc1C [Compound 101, methyl 2-(bis(3-methoxybenzyl)amino)-5-methylthiazole-4-carboxylate] | 0.03 | II (Group II is more than twice that of THI0349 but less than five times THI0349's EC50)
CCOC(=O)c1csc(N(Cc2cccc(OC)c2)Cc2cccc(OC)c2)n1 [Compound 102, ethyl 2-(bis(3-methoxybenzyl)amino)thiazole-4-carboxylate] | 0.5 | II (Group II is more than twice that of THI0349 but less than five times THI0349's EC50)
COc1cccc(COCc2csc(N(Cc3ccc(-n4cccn4)cc3)Cc3cccc(OC)c3)n2)c1 [Compound 104, N-(4-(1H-pyrazol-1-yl)benzyl)-N-(3-methoxybenzyl)-4-((3-methoxybenzyloxy)methyl)thiazol-2-amine] | 0.28 | I (Group I maintains at least the same potency or better up to more than twice that of the EC50 of THI0349 ran on the same plate)
CCOC(=O)c1csc(N(C)Cc2cccc(OC)c2)n1 [Compound 106, ethyl 2-((3-methoxybenzyl)(methyl)amino)thiazole-4-carboxylate] | 0.05 | III (Group III more than five times the EC50 of THI0349)

The next lines start with results.

LAD Raw Fluorescence Units against LFA-1; Dose 3 µM; Ratio of raw counts Compound/THI0349 (αLβ2/ICAM-1) | Structure (SMILES) | Group against VCAM (α4β1/VCAM-1)
0.06 | COc1cccc(CN(C)c2nc(CN3CCOCC3)cs2)c1 [Compound 111, N-(3-methoxybenzyl)-N-methyl-4-(morpholinomethyl)thiazol-2-amine] | III (Group III more than five times the EC50 of THI0349)
0.04 | COc1cccc(COCc2csc(N(C)Cc3cccc(OC)c3)n2)c1 [Compound 112, N-(3-methoxybenzyl)-4-((3-methoxybenzyloxy)methyl)-N-methylthiazol-2-amine] | III (Group III more than five times the EC50 of THI0349)
0.64 | CCOC(=O)c1csc(N(Cc2ccc(-n3ccnc3)cc2)Cc2cccc(OC)c2)n1 [Compound 113, ethyl 2-((4-(1H-imidazol-1-yl)benzyl)(3-methoxybenzyl)amino)thiazole-4-carboxylate] | II (Group II is more than twice that of THI0349 but less than five times THI0349's EC50)
0.39 | CCOC(=O)c1csc(N(Cc2cccc(OC)c2)Cc2ccc3ncccc3c2)n1 [Compound 114, ethyl 2-((3-methoxybenzyl)(quinolin-6-ylmethyl)amino)thiazole-4-carboxylate] | II (Group II is more than twice that of THI0349 but less than five times THI0349's EC50)
0.09 | CCOC(=O)c1csc(N(Cc2cccc(OC)c2)Cc2ccc3[nH]ncc3c2)n1 [Compound 116, ethyl 2-(((1H-indazol-5-yl)methyl)(3-methoxybenzyl)amino)thiazole-4-carboxylate] | III (Group III more than five times the EC50 of THI0349)
0.15 | CCOC(=O)c1csc(N(Cc2cccc(OC)c2)Cc2cccc(-n3ccnc3)c2)n1 [Compound 118, ethyl 2-((3-(1H-imidazol-1-yl)benzyl)(3-methoxybenzyl)amino)thiazole-4-carboxylate] | II (Group II is more than twice that of THI0349 but less than five times THI0349's EC50)
0.2 | CCOC(=O)c1csc(N(Cc2cccc(OC)c2)Cc2cccc(-n3cccn3)c2)n1 [Compound 119, ethyl 2-((3-(1H-pyrazol-1-yl)benzyl)(3-methoxybenzyl)amino)thiazole-4-carboxylate] | II (Group II is more than twice that of THI0349 but less than five times THI0349's EC50)
0.18 | CCOC(=O)c1csc(N(Cc2cccc(OC)c2)CC(C)C)n1 [Compound 121, ethyl 2-(isobutyl(3-methoxybenzyl)amino)thiazole-4-carboxylate] | III (Group III more than five times the EC50 of THI0349)
0.75 | COc1cccc(COc2cc(C)n(N(Cc3cccc(OC)c3)Cc3cccc(OC)c3)c(=O)c2)c1 [Compound 127, 1-(bis(3-methoxybenzyl)amino)-4-((3-methoxybenzyl)oxy)-6-methylpyridin-2(1H)-one] | II (Group II is more than twice that of THI0349 but less than five times THI0349's EC50)
